Assay results taken from ChEMBL document CHEMBL5380835, “Discovery of Clinically Used Octenidine as NRAS Repressor That Effectively Inhibits NRAS-Mutant Melanoma” (J Med Chem, 2023).
Active and inactive are the calls of the source. The calls are words filed in the database; no cut-off is given here.

Assays:
SK-MEL-2 [1] = test: Antiproliferative activity against human SK-MEL-2 cells assessed as inhibition of colony formation at 1.5 uM measured after 10 days by crystal violet staining based assay; type: functional, cell-based; settings: time 10.0 day
SK-MEL-2 [2] = test: Synergistic cytotoxicity against human SK-MEL-2 cells expressing NRAS mutant assessed as combination index measured for 48 hrs in presence of Rapamycin by MTT assay; type: functional
SK-MEL-2 [3] = test: Synergistic cytotoxicity against human SK-MEL-2 cells expressing NRAS mutant assessed as combination index measured for 48 hrs in presence of MK2206 by MTT assay; type: functional
SK-MEL-2 [4] = test: Antitumor activity against human SK-MEL-2 cells xenografted in BALB/c nude mouse assessed as tumor growth inhibition at 5 mg/kg/day, ip by electronic caliper method; type: functional, organism-based; settings: time 30.0 day, TDE = time-dependent effect
SK-MEL-2 [5] = test: Antitumor activity against human SK-MEL-2 cells xenografted in BALB/c nude mouse assessed as reduction in tumor weight at 5 mg/kg/day, ip administered for 30 days by electronic caliper method; type: functional, organism-based; settings: time 30.0 day
SK-MEL-2 [6] = test: Antitumor activity against human SK-MEL-2 cells xenografted in BALB/c nude mouse assessed as T/C ratio at 5 mg/kg/day, ip administered for 30 days relative to control; type: functional; settings: time 30 day
SK-MEL-2 [7] = test: Antitumor activity against human SK-MEL-2 cells xenografted in BALB/c nude mouse assessed as tumor growth inhibition at 5 mg/kg/day, ip administered for 30 days relative to control; type: functional; settings: SK-MEL-2, 720 h, time 30 day, read-out: TGI

SMILES: Cn1cnc2c(F)c(Nc3ccc(Br)cc3F)c(C(=O)NOCCO)cc21 [BINIMETINIB]
- inhibition (SK-MEL-2 [1]): Active
- CI (SK-MEL-2 [2]): 0.5
- CI (SK-MEL-2 [3]): 0.5
- Activity (SK-MEL-2 [4]): Tde
- Activity (SK-MEL-2 [5]): Active
- T/C (SK-MEL-2 [6]): 24.8%
- inhibition in vivo at 5 mg/kg/day (SK-MEL-2 [7]): 70.4%
